Patent US5914338A, “Heterocyclic compounds and their preparation and use” (Novo Nordisk, priority 1996, dated 1999)
Counter-ions that a name gives are not always drawn. Like-named read-outs stand apart in the source and are kept apart here.

Legend:
[1] = molecular target: T1, subtype of muscarinic receptors (M1-site, pirenzepine sensitive site), rat cerebral cortex membranes (Rattus norvegicus, UniProt P08482); test: inhibition of ^3 H-PRZ (pirenzepine, [N-methyl-^3 H]) binding to rat cerebral cortex membranes; set-up: species or system rat (male Wistar)
T1 construct: Fresh cortex (0.1-1 g) from male Wistar rats (150-200 g) is homogenized; from tissue; host or cells: fresh cerebral cortex membranes of male Wistar rats
T1 sequence (P08482 1-460): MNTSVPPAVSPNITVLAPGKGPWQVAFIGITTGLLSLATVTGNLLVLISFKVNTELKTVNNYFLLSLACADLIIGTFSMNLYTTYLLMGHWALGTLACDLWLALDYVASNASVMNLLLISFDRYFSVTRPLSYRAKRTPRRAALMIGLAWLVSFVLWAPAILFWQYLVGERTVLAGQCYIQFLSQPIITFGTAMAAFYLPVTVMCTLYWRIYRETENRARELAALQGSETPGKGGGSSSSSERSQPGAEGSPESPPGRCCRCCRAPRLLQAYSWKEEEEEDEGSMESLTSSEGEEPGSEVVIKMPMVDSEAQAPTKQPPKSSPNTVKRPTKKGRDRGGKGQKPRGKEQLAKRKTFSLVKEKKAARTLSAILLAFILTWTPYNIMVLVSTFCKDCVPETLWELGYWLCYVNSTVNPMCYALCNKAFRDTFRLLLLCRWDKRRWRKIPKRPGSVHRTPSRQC
Procedure: Furthermore, the pharmacological properties of the compounds of the invention can also be illustrated by determining their capability to inhibit ^3 H-PRZ (pirenzepine, [N-methyl-^3 H]) binding to rat cerebral cortex membranes. Pirenzepine binds selectively to subtype of muscarinic receptors. Historically the type is named the M1 -site, whereas pirenzepine sensitive site would be more appropriate.
(§1) All preparations are performed at 0-4° C. unless otherwise indicated. Fresh cortex (0.1-1 g) from male Wistar rats (150-200 g) is homogenized for 5-10 s. in 10 ml 20 mM Hepes pH: 7.4, with an Ultra-Turraxhomogenizer. The homogenizer is rinsed with 2×10 ml of buffer and the combined suspension centrifuged for 15 min at 40,000×g. The pellet is washed three times with buffer. In each step the pellet is homogenized as before in 3×10 ml of buffer and centrifuged for 10 min at 40,000×g.
The final pellet is homogenized in 20 mM Hepes pH: 7.4 (100 ml per g of original tissue) and used for binding assay. Aliquots of 0.5 ml is added 20 μl of test solution and 25 μl of ^3 H-Pirenzepine (1.0 nM, final conc.), mixed and incubated for 60 min at 20° C. Non-specificbinding is determined in triplicate using atropine (1 μg/ml, final conc.) as the test substance. After incubation samples are added 5 ml of ice-cold buffer and poured directly onto Whatman GF/C glass fibre filters under suction and immediately washed 2 times with 5 ml of ice-cold buffer. The amount of radioactivity on the filters are determined by conventional liquid scintillation counting. Specific binding is total binding minus non-specific binding.
Test substances are dissolved in 10 ml water, at a concentration of 0.22 mg/ml. 25-75% inhibition of specific binding must be obtained before calculation of IC50.
The test value will be given as IC50 (the concentration (nM) of the test substance which inhibits the specific binding of ^3 H-PRZ by 50%) .
(§2) IC50 =(applied test substance concentration) x(Cx /Co
(§3) where Co is specific binding in control assays and Cx is the specific binding in the test assay. (The calculations assume normal mass-action kinetics).

[2] = molecular target: muscarinic acetylcholine receptors; test: inhibition of specific binding of ^3 H-Oxotremorine-M (^3 H-Oxo), fresh rat cortex; set-up: species or system rat (male Wistar); details: ^3 H-Oxotremorine 1.0 nM, 30 min at 25° C, pH 7.4
Description: The pharmacological properties of the compounds of the invention can be illustrated by determining their capability to inhibit the specific binding of ^3 H-Oxotremorine-M (^3 H-Oxo). Birdsdall N. J. M., Hulme E. C., and Burgen A. S. V. (1980). "The Character of Muscarinic Receptors in Different Regions of the Rat Brain". Proc. Roy. Soc. London (Series B) 207,1.
^3 H-Oxo labels muscarinic receptor in the CNS (with a preference for agonist domains of the receptors). Three different sites are labelled by ^3 H-Oxo. […] Using the present experimental conditions only the high and medium affinity sites are determined.
The inhibitory effects of compounds on ^3 H-Oxo binding reflects the affinity for muscarinic acetylcholine receptors.
as §1, with “(150-250” for “(150-200”, “s” for “s.”, “Ultra-Turrax homogenizer.” for “Ultra-Turraxhomogenizer.”, “10” for “2×10”, “min.” for “min”, “2×10” for “3×10”
The final pellet is homogenized in 20 mM Hepes pH: 7.4 (100 ml per g of original tissue) and used for binding assay. Aliquots of 0.5 ml is added 25 μl of test solution and 25 μl of ^3 H-Oxotremorine (1.0 nM, final concentration) mixed and incubated for 30 min. at 25° C. Non-specific is determined in triplicate using arecoline (1 μg/ml, final concentration) as the test substance. After incubation samples are added 5 ml of ice-cold buffer and poured directly onto Whatman GF/C glass fiber filters under suction and immediately washed 2 times with 5 ml of ice-cold buffer. The amount of radioactivity on the filters are determined by conventional liquid scintillation counting. Specific binding is total binding minus non specific binding.
Test substances are dissolved in 10 ml water (if necessary heated on a steambath for less than 5 min.) at a concentration of 2.2 mg/ml. 25-75% inhibition of specific binding must be obtained before calculation of IC50.
The test value will be given as IC50 (the concentration (nM) of the test substance which inhibits the specific binding of ^3 H-Oxo by 50%) .
as §2, §3

[3] = molecular target: muscarinic receptor in the CNS; details: read-out: affinity of site labelled by ^3 H-Oxo, cited from earlier work
M1-sites = details: cited from earlier work
M2-sites = details: cited from earlier work
[4] = ^3 H-Pirenzepine 1.0 nM, rat cortex, 60 min at 20° C, pH 7.4, read-out: ^3 H-PRZ IC50

SMILES | IC50 [1, 4] | IC50 [2] | further results
CCCSc1nsnc1C12CN3CC1C2C3 [Compound 2, 1-(3-Propylthio-1,2,5-thiadiazol-4-yl)-4-azatricyclo[2.2.1.0^2,6]heptane, oxalate] | – | 4.3 nM | IC50 [1]: 100 nM
C[N+](C)(C)CC#CCN1CCCC1=O [^3 H-Oxo, ^3 H-Oxotremorine-M] | – | – | Kd ([3]; first (high affinity) site): 1.8 nM; Kd ([3]; second (medium affinity) site): 20 nM; Kd ([3]; third site, not determined under the present conditions): 3000 nM
CN1CCN(CC(=O)N2c3ccccc3C(=O)Nc3cccnc32)CC1 [pirenzepine] | – | – | selectivity for M1-sites (M1-sites): selective for M1 -sites; interaction with M2-sites (M2-sites): also interact with M2 -sites
FC(F)(F)CCSc1nsnc1C12CN3CC1C2C3 [Compound 3, 1-(3,3,3-Trifluoropropylthio-1,2,5-thiadiazol-4-yl)-4-azatricyclo[2.2.1.0^2,6]heptane, oxalate] | 245 nM | 14 nM | –
N#Cc1ccc(CSc2nsnc2C23CN4CC2C3C4)cc1 [Compound 4, 1-[3-(4-Cyanobenzylthio)-1,2,5-thiadiazol-4-yl]-4-azatricyclo[2.2.1.0^2,6]heptane, oxalate] | 500 nM | 41 nM | –
C(#Cc1cccnc1)COc1nsnc1C12CN3CC1C2C3 [Compound 11, 1-(3-[3-(3-Pyridyl)-2-propyn-1-yloxy]-1,2,5-thiadiazol-4-yl)-4-azatricyclo[2.2.1.0^2,6]heptane, oxalate] | 400 nM | 6 nM | –

Second part, led by results:

IC50 [1, 4] | IC50 [2] | SMILES | further results
180 nM | 8.7 nM | C(#Cc1ccsc1)COc1nsnc1C12CN3CC1C2C3 [Compound 8, 1-(3-[3-(3-Thienyl)-2-propyn-1-yloxy]-1,2,5-thiadiazol-4-yl)-4-azatricyclo[2.2.1.0^2,6]heptane, oxalate] | –
93 nM | 17 nM | Fc1ccc(C#CCOc2nsnc2C23CN4CC2C3C4)cc1 [Compound 6, 1-(3-[3-(4-Fluorophenyl)-2-propynyl-1-oxy]-1,2,5-thiadiazol-4-yl)-4-azatricyclo[2.2.1.0^2,6]heptane, oxalate] | –
284 nM | 15 nM | C(#Cc1cccs1)COc1nsnc1C12CN3CC1C2C3 [Compound 9, 1-(3-[3-(2-Thienyl)-2-propyn-1-yloxy]-1,2,5-thiadiazol-4-yl)-4-azatricyclo[2.2.1.0^2,6]heptane, oxalate] | –
326 nM | 25 nM | COc1cccc(C#CCOc2nsnc2C23CN4CC2C3C4)c1 [Compound 10, 1-(3-[3-(3-Methoxyphenyl)-2-propyn-1-yloxy]-1,2,5-thiadiazol-4-yl)-4-azatricyclo[2.2.1.0^2,6]heptane, hydrochloride] | –
183 nM | 26 nM | C(#Cc1ccccc1)COc1nsnc1C12CN3CC1C2C3 [Compound 7, 1-[3-(3-Phenyl-2-propynyl-1-oxy)-1,2,5-thiadiazol-4-yl]-4-azatricyclo[2.2.1.0^2,6]heptane, oxalate] | –
